In patent US20190269614A1, “CHEWABLE TABLET CONTAINING VITAMIN C SODIUM AND PREPARATION METHOD THEREOF” (GUANGXI SANPOTEL HEALTH INDUSTRY CO. LTD, priority 2016, published 2019):

Assay: Lubricant trial: tabletting of vitamin C sodium chewable tablets with different lubricants
Assay type: physicochemical
Conditions: for Tabletting condition: granules with the named lubricant; for Friability / Hardness: tablets with the named lubricant
Text: During tabletting, in order to increase granule fluidity, and ensure good filling and even distribution of tablet density, a certain amount of lubricant needs to be added to solve the problems of poor granule fluidity and sticking during tabletting. In the experiment of the present application, tabletting conditions when magnesium stearate, micro-powder silica gel, talcum powder, sodium dodecyl sulfate and mannitol were used as the lubricant were compared, and results are shown in Table 3.
From the test results in Table 3, it can be seen that when magnesium stearate, sodium dodecyl sulfate and mannitol are used, fluidity is good and sticking during tabletting is avoided, and prepared tablets have appropriate hardness and smooth and beautiful surfaces; when micro-powder silica gel is added, fluidity is good and sticking during tabletting is avoided, but the hardness of prepared tablets is low; and when talcum powder is added, fluidity is poor and sticking occurs during tabletting, and prepared tablets have large hardness. Therefore, magnesium stearate, sodium dodecyl sulfate and mannitol are selected as the lubricant in the present application.

| Tabletting condition | Friability [%] | Hardness [N] | Compound |
| --- | --- | --- | --- |
| non-sticking | 0.39 | 54 | OC[C@@H](O)[C@@H](O)[C@H](O)[C@H](O)CO [mannitol] |
| non-sticking | 0.42 | 59 | CCCCCCCCCCCCOS(=O)(=O)[O-].[Na+] [sodium dodecyl sulfate] |

| Compound | Tabletting condition | Friability [%] | Hardness [N] |
| --- | --- | --- | --- |
| magnesium stearate | non-sticking | 0.34 | 49 |
